Laboratory results reported in patent US10485836B2, “Anti-fatigue composition used for increasing endurance performance, and use of the same” (SINPHAR PHARMACEUTICAL CO., LTD., priority 2017, dated 2019).

Legend:
C2C12 muscle cells [1] = assay: Oxygen consumption rate of TNF-α damaged muscle cells (Seahorse XF24); type: cell-based, mice; conditions: TNF-α 10 ng/ml, relative to control group (1-fold); for oxygen consumption of ATP production: FIG. 1A; for oxygen consumption of maximal respiration: FIG. 1B
Description: (§1) It is known that severe exercise or long-term exercise may lead to a large release of tumor necrosis factor alpha (TNF-α) and a decrease in mitochondria functions such as oxygen consumption rate (OCR, which represents the ability of aerobic metabolism of mitochondria) and extracellular acidification rate (ECAR, which represents the ability of glycolysis of mitochondria), so that the mitochondria cannot generate enough energy to supply cells in a subject, thereby resulting in the occurrence of fatigue in the subject. In this example, the C2C12 muscle cells with TNF-α induced damages were administered with the composition of the present invention, which comprises Cistanche tubulosa extract and ubiquinol, to understand the effect of the composition on anti-fatigue.
First, C2C12 cells (i.e., the muscle cells of mice; purchased from ATCC) were cultivated in an H-DMEM medium (purchased from Sigma company) containing 10% fetal bovine serum (purchased from BI company). After the C2C12 cells grew to the confluence rate of 80% (i.e., the mixed monolayer cells were accounted for 80% of the area), the cells were divided into seventeen groups (including a control group, a TNF-α group and fifteen experimental groups) and separately subjected to the following treatments: • 1. Control group: cells were cultivated in an H-DMEM medium for 6 hours; and then, the medium was replaced with a differentiation medium (containing an H-DMEM medium and 2% horse serum), and the cells were continuously cultivated for another 4 days. • 2. TNF-α group: cells were cultivated in an H-DMEM medium for 6 hours; and then, the medium was replaced with a differentiation medium (containing an H-DMEM medium and 2% horse serum) being externally added with TNF-α (to a final concentration of 10 ng/ml), and the cells were continuously cultivated overnight; finally, the medium was replaced with a differentiation medium, and the cells were cultivated for another 4 days. • 3. […] In Table 1, the extract and ubiquinol were dissolved in a differentiation medium, and the unit “μg/ml” represents the weight of extract (as dry weight) and/or ubiquinol (as dry weight) in every milliliter of the differentiation medium.
The cells in the control group, TNF-α group and experimental groups 1 to 15 provided by Example (1-1) were respectively taken, and the oxygen consumption rates (including the oxygen consumption of ATP production and the oxygen consumption of maximal respiration) thereof were examined by a cell energy metabolism analyzer (Seahorse XF24). Then, the result of the control group was served as a basis (i.e., the oxygen consumption rate of the control group was set as 1-fold) to calculate the oxygen consumption rate of each group.

C2C12 muscle cells [2] = assay: Extracellular acidification rate of TNF-α damaged muscle cells (cell energy metabolism analyzer); type: cell-based, mice; conditions: TNF-α 10 ng/ml, relative to control group (1-fold)
Description: as §1
First, C2C12 cells (i.e., the muscle cells of mice; purchased from ATCC) were cultivated in an H-DMEM medium (purchased from Sigma company) containing 10% fetal bovine serum (purchased from BI company). After the C2C12 cells grew to the confluence rate of 80% (i.e., the mixed monolayer cells were accounted for 80% of the area), the cells were divided into seventeen groups (including a control group, a TNF-α group and fifteen experimental groups) and separately subjected to the following treatments: • 1. […]

Compound	oxygen consumption of ATP production (C2C12 muscle cells [1])	oxygen consumption of maximal respiration (C2C12 muscle cells [1])	glycolysis level (C2C12 muscle cells [2]; FIG. 2A)	glycolytic reserve (C2C12 muscle cells [2]; FIG. 2B)
COc1c(O)c(C)c(C/C=C(\C)CC/C=C(\C)CC/C=C(\C)CC/C=C(\C)CC/C=C(\C)CC/C=C(\C)CC/C=C(\C)CC/C=C(\C)CC/C=C(\C)CCC=C(C)C)c(O)c1OC [ubiquinol]	cannot alleviate	cannot alleviate	–	–
TNF-α	significantly decreased	significantly decreased	significantly increased	significantly decreased
